Measurements: patent US10442808B2, “Pyrazolo pyrimidine derivatives and their use as MALT1 inhbitors” (NOVARTIS AG, priority 2014, dated 2019)
pIC50: −log10 of the molar value.

Key:
[1] = target: C-domain of MALT1 (amino acids 329-824) (Homo sapiens (Human), UniProt Q9UDY8); assay: MALT1 biochemical assay (fluorescence lifetime enzyme activity assay); settings: 60 min preincubation, 2.5 nM enzyme, 1 μM substrate
Experimental: The readout parameter is the increase of fluorescence lifetime over time, proportional to enzyme activity.
The assay employs a short peptide substrate labeled with the single fluorophore PT14 as a fluorescence lifetime probe sensitive to the cleavage state of the substrate (PT14: 6-(9-oxo-9H-acridin-10-yl)-hexanoate, AssayMetrics, UK). […] The assay buffer consists of 200 mM Tris/HCl at pH 7.5, 0.8 M Na citrate, 100 μM EGTA, 100 μM DTT and 0.05% (w/v) CHAPS. […] Test compounds were dissolved in 100% (v/v) DMSO or a mixture containing 90% (v/v) DMSO and 10% (v/v) H2O at a stock concentration of 100 mM. Serial dilutions of test compounds were prepared using either 100% (v/v) DMSO or a mixture containing 90% (v/v) DMSO and 10% (v/v) H2O.
The exponent, p, is the Hill coefficient.

IL2 promoter = assay: Human IL2 promoter reporter gene assay (RGA) in Jurkat cells; assay type: cell-based; settings: […], heading: IL2 reporter gene assay IC50, anti-CD28 mAb + PMA stimulation 5.5 h
Experimental: Human IL2 Promoter Reporter Gene Assay (RGA) in Jurkat Cells
The transfected Jurkat clone K22 290_H23 was propagated in RPMI 1640 supplemented with 10% heat inactivated fetal calf serum, 50 μM 2-mercaptoethanol and 1 mg/ml Geneticin. The cell concentration should not exceed 1×10e6/ml during culturing. The cells should not exceed passage 30. Prior to the assay the cells were washed and prepared to the concentration of 2×10e6 cells/ml.
Compound dilutions were made as 2×-concentrated solutions then diluted ½ by addition to cells. Two hundred and fifty μl of compound dilution and 250 μl of cells were mixed together in wells of a 96-deep well plate. Cells/compounds premix were incubated 30 min at 37° C. and 5% CO2 directly in the deep well plate.
After pre-incubation of cells with compounds, cells were stimulated with anti-CD28 mAb (clone 15E8) at 3 μg/ml+PMA at 1 μg/ml. Both co-stimulants were diluted in culture medium at a 10×-concentrated solution. 10 μl of co-stimulants were pipetted into the white 96-well plates and 100 μl of cell/compound mix was immediately added in duplicates. The cells were stimulated for 5.5 h at 37° C. and 5% CO2.
After cell stimulation, 50 μl of BriteLitePlus reagent (Perkin Elmer) was added to each well and the bioluminescence was measured with a Wallac EnVision reader (Perkin Elmer).

Chain of C-domain of MALT1 (amino acids 329-824) (Q9UDY8 329-824): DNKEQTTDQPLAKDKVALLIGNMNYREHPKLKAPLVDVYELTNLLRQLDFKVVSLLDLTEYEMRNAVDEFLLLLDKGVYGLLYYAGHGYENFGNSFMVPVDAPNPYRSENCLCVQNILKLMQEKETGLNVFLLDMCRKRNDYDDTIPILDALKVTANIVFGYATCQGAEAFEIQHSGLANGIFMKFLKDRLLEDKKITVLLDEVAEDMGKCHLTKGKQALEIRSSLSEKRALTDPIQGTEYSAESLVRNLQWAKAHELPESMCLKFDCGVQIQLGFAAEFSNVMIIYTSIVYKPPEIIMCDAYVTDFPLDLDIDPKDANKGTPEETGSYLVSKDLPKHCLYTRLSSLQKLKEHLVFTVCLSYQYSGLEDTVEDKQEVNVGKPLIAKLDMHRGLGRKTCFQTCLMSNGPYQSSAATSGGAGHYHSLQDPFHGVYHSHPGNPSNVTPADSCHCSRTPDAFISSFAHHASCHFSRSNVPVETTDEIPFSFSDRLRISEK

Compound	pIC50 [1]	pIC50 (IL2 promoter)
C[C@H](O[C@H]1CCOC1)c1c(NC(=O)Nc2cnc(-n3nccn3)c(Cl)c2)cnc2cc(Cl)nn12 [Example 101, 1-(5-chloro-6-(2H-1,2,3-triazol-2-yl)pyridin-3-yl)-3-(2-chloro-7-((S)-1-(((S)-tetrahydrofuran-3-yl)oxy)ethyl)pyrazolo [1,5-a]pyrimidin-6-yl)urea]	8.30	–
Cn1ccnc1-c1c(NC(=O)Nc2cnc(-n3nccn3)c(Cl)c2)cnc2cc(Cl)nn12 [Example 86, 1-(5-chloro-6-(2H-1,2,3-triazol-2-yl)pyridin-3-yl)-3-(2-chloro-7-(1-methyl-1H-imidazol-2-yl)pyrazolo[1,5-a]pyrimidin-6-yl)urea]	7.10	7.36
Cc1cc(CO)nn1-c1ccc(NC(=O)Nc2cnc3cc(Cl)nn3c2C(C)C)cc1Cl [Example 28, 1-(3-chloro-4-(3-(hydroxymethyl)-5-methyl-1H-pyrazol-1-yl)phenyl)-3-(2-chloro-7-isopropylpyrazolo[1,5-a]pyrimidin-6-yl)urea]	8.05	–
CN[C@@H](C)c1c(NC(=O)Nc2cnc(-n3nccn3)c(Cl)c2)cnc2cc(Cl)nn12 [Example 119, (S)-1-(5-chloro-6-(2H-1,2,3-triazol-2-yl)pyridin-3-yl)-3-(2-chloro-7-(1-(methylamino)ethyl)pyrazolo[1,5-a]pyrimidin-6-yl)urea]	7.92	–
CC(C)c1c(NC(=O)Nc2ccc(-c3ccnc(N)n3)c(Cl)c2)cnc2cc(Cl)nn12 [Example 23, 1-(4-(2-aminopyrimidin-4-yl)-3-chlorophenyl)-3-(2-chloro-7-isopropylpyrazolo[1,5-a]pyrimidin-6-yl)urea]	8.40	6.28
O=C(Nc1cnc(-n2nccn2)c(Cl)c1)Nc1cnc2cc(Cl)nn2c1C1COCCN1 (centres unmarked) [Example 123, 1-(5-chloro-6-(2H-1,2,3-triazol-2-yl)pyridin-3-yl)-3-(2-chloro-7-(morpholin-3-yl)pyrazolo[1,5-a]pyrimidin-6-yl)urea]	7.39	–
O=C(Nc1cnc(-n2nccn2)c(Cl)c1)Nc1cnc2cc(Cl)nn2c1C1CNCCO1 (centres unmarked) [Example 115, 1-(5-chloro-6-(2H-1,2,3-triazol-2-yl)pyridin-3-yl)-3-(2-chloro-7-(morpholin-2-yl)pyrazolo[1,5-a]pyrimidin-6-yl)urea]	7.12	–
CO[C@@H](C)c1c(NC(=O)Nc2ccnc(Cl)c2)cnc2cc(Cl)nn12 [Example 12, (S)-1-(2-chloro-7-(1-methoxyethyl)pyrazolo [1,5-a]pyrimidin-6-yl)-3-(2-chloropyridin-4-yl)urea]	–	7.41
COC(=O)c1cc(Cl)cc(NC(=O)Nc2cnc3cc(Cl)nn3c2[C@H](C)OC)c1 [Example 13, (S)-methyl 3-chloro-5-(3-(2-chloro-7-(1-methoxyethyl)pyrazolo [1,5-a]pyrimidin-6-yl)ureido)benzoate]	–	7.17
COCC1(c2c(NC(=O)Nc3cnc(-n4nccn4)c(Cl)c3)cnc3cc(Cl)nn23)CC1 [Example 76, 1-(5-chloro-6-(2H-1,2,3-triazol-2-yl)pyridin-3-yl)-3-(2-chloro-7-(1-(methoxymethyl)cyclopropyl)pyrazolo[1,5-a]pyrimidin-6-yl)urea]	–	7.33
CO[C@H](C)c1c(NC(=O)Nc2ccnc(C(F)(F)F)c2)cnc2cc(Cl)nn12 [Example 47, (R)-1-(2-chloro-7-(1-methoxyethyl)pyrazolo [1,5-a]pyrimidin-6-yl)-3-(2-(trifluoromethyl)pyridin-4-yl)urea]	–	7.03
COCC1(c2c(NC(=O)Nc3ccnc(C(F)(F)F)c3)cnc3cc(Cl)nn23)CC1 [Example 77, 1-(2-chloro-7-(1-(methoxymethyl)cyclopropyl)pyrazolo[1,5-a]pyrimidin-6-yl)-3-(2-(trifluoromethyl)pyridin-4-yl)urea]	–	7.34
CCOc1ncc(NC(=O)Nc2cnc3cc(Cl)nn3c2C(C)C)cc1Cl [Example 25, 1-(5-chloro-6-ethoxypyridin-3-yl)-3-(2-chloro-7-isopropylpyrazolo[1,5-a]pyrimidin-6-yl)urea]	–	6.61
C[C@H](OCCN(C)C)c1c(NC(=O)Nc2cnc(-n3nccn3)c(Cl)c2)cnc2cc(Cl)nn12 [Example 82, (S)-1-(5-chloro-6-(2H-1,2,3-triazol-2-yl)pyridin-3-yl)-3-(2-chloro-7-(1-(2-(dimethylamino)ethoxy)ethyl)pyrazolo[1,5-a]pyrimidin-6-yl)urea]	–	7.80
CO[C@H](c1c(NC(=O)Nc2cnc(-n3nccn3)c(Cl)c2)cnc2cc(Cl)nn12)[C@@H](C)OC [Example 98, 1-(5-chloro-6-(2H-1,2,3-triazol-2-yl)pyridin-3-yl)-3-(2-chloro-7-((1R,2R)-1,2-dimethoxypropyl)pyrazolo[1,5-a]pyrimidin-6-yl)urea]	–	6.94
CC(C)c1c(NC(=O)Nc2ccc(-n3nccn3)c(Cl)c2)cnc2cc(Cl)nn12 [Example 20, l-(3-chloro-4-(2H-1,2,3-triazol-2-yl)phenyl)-3-(2-chloro-7-isopropylpyrazolo [1,5-a]pyrimidin-6-yl)urea]	–	7.00
CC(C)c1c(NC(=O)Nc2cc(C(F)(F)F)ncc2-n2nccn2)cnc2cc(Cl)nn12 [Example 112, 1-(5-(2H-1,2,3-triazol-2-yl)-2-(trifluoromethyl)pyridin-4-yl)-3-(2-chloro-7-isopropylpyrazolo[1,5-a]pyrimidin-6-yl)urea]	–	7.24
COCCO[C@@H](C)c1c(NC(=O)Nc2ccnc(C(F)(F)F)c2)cnc2cc(Cl)nn12 [Example 41, (S)-1-(2-chloro-7-(1-(2-methoxyethoxy)ethyl)pyrazolo[1,5-a]pyrimidin-6-yl)-3-(2-(trifluoromethyl)pyridin-4-yl)urea]	–	7.09
CC(C)c1c(NC(=O)Nc2cnc(-c3ccnn3C)c(Cl)c2)cnc2cc(Cl)nn12 [Example 29, 1-(5-chloro-6-(1-methyl-1H-pyrazol-5-yl)pyridin-3-yl)-3-(2-chloro-7-isopropylpyrazolo[1,5-a]pyrimidin-6-yl)urea]	–	6.66
CC(C)(C)OC(=O)N1CCOC(c2c(NC(=O)Nc3cnc(-n4nccn4)c(Cl)c3)cnc3cc(Cl)nn23)C1 (centres unmarked) [Example 66, tert-butyl 2-(2-chloro-6-(3-(5-chloro-6-(2H-1,2,3-triazol-2-yl)pyridin-3-yl)ureido)pyrazolo[1,5-a]pyrimidin-7-yl)morpholine-4-carboxylate]	7.74	7.55
C[C@H](O)c1c(NC(=O)Nc2ccnc(C(F)(F)F)c2)cnc2cc(Cl)nn12 [Example 114, (S)-1-(2-chloro-7-(1-hydroxyethyl)pyrazolo[1,5-a]pyrimidin-6-yl)-3-(2-(trifluoromethyl)pyridin-4-yl)urea]	8.15	–
Cc1cc2ncc(NC(=O)Nc3cnc(-n4nccn4)c(Cl)c3)c(C3(C)CCCO3)n2n1 (centres unmarked) [Example 104, 1-(5-chloro-6-(2H-1,2,3-triazol-2-yl)pyridin-3-yl)-3-(2-methyl-7-(2-methyltetrahydrofuran-2-yl)pyrazolo[1,5-a]pyrimidin-6-yl)urea]	–	6.87
COC(c1ccccc1)c1c(NC(=O)Nc2cnc(-n3nccn3)c(Cl)c2)cnc2cc(Cl)nn12 (centres unmarked) [Example 49, 1-(5-chloro-6-(2H-1,2,3-triazol-2-yl)pyridin-3-yl)-3-(2-chloro-7-(methoxy(phenyl)methyl)pyrazolo[1,5-a]pyrimidin-6-yl)urea]	–	7.02
